# Data reported in US20080318884A1, “Methods for Altering Gene Expression and Methods of Treatment Utilizing Same” (THE UAB RESEARCH FOUNDATION, priority 2005, published 2008).
# Legend:
# wild type Hdh mRNA = experiment: QSI treatment of control ES cells expressing a single wild type Hdh allele, Hdh mRNA by quantitative real time PCR; type: cell-based, mouse; details: QSI for six hours, high glutamine, FIG. 2C
# Experimental: (§1) ES cell lines hemizygous for HdhQ150 were treated with an inhibitor of the glutaminyl-tRNA synthetase, QSI (5′-O-[N-(L-glutaminyl)sulfamoyl]adenosine) for six hours in the presence of high levels of glutamine. […] In this case the long CAG repeat is used to represent a rare cluster of codons. This diminishment in disease allele expression was accomplished in the presence of high amounts of glutamine (1.2 grams/ml) showing that reduction of expression can be attained by inhibition of a tRNA synthetase while providing normal amounts of the amino acid which is a substrate for the synthetase reaction. […]
# (§2) Since the quantitative real time PCR (QRTPCR) assay (described below) cannot distinguish between different alleles of Hdh it is necessary that the ES cells only express a single allele. […] These engineered ES cells express only the long repeat version of Hdh and lack wild type Hdh mRNA as determined by RT-PCR across the repeat region.
# (§3) Finally, a quantitative real time PCR (QRTPCR) assays has been developed for both Hprt and Hdh mRNA. […] During the PCR reaction the polymerase destroys the oligo releasing the […] to allow fluorescence. Fluorescence is measured though every cycle and the point when it increases beyond threshold is logarithmically related to the amount of starting RNA. […]
# HdhQ150 mRNA = experiment: QSI treatment of ES cells hemizygous for HdhQ150, Hdh mRNA by quantitative real time PCR; type: cell-based, mouse; details: ES cells hemizygous for HdhQ150, QSI for six hours, high glutamine (1.2 grams/ml), FIG. 2C
# Experimental: as §1, §2, §3
smiles,measurement,setting,value
"NC(=O)CC[C@H](N)C(=O)NS(=O)(=O)OC[C@H]1O[C@@H](n2cnc3c(N)ncnc32)[C@H](O)[C@@H]1O [QSI, 5′-O-[N-(L-glutaminyl)sulfamoyl]adenosine]",wild type Hdh mRNA levels,wild type Hdh mRNA,effect of QSI in lowering Hdh mRNA levels was dependent on the presence of the long CAG repeat
same,HdhQ150 mRNA levels,HdhQ150 mRNA,lowered by QSI treatment in a dose dependent manner
